Measured values as given in patent US10711002B2, “Purine compounds and method for the treatment of cancer” (THE ROYAL INSTITUTION FOR THE ADVANCEMENT OF …, priority 2016, dated 2020).

Legend:
[1] = tested on: MDA-MB-231 cells; experiment: Tumorsphere formation; assay type: cell-based; settings: MDA-MB-231, 1 μM for 72H, reseeded in suspension
Procedure: (§1) Cancer cell lines: MDA-MB-231, BT-20, Panc-1, OVCAR-3, 4T1 and RENCA were obtained from ATCC. Epithelial breast adenocarcinoma cell line PMC42-LA, were kindly provided by Dr. Ackland. Mia-Paca cells were kindly provided by Dr. George Zogopoulos. All cancer cell lines were cultured in RPMI1640× with 10% fetal bovine serum with 1% penicillin/streptomycin, and maintained at 37° C. in 5% atmosphere of CO2. In the case of growth factor stimulation, cells were serum starved for no longer than 12H, and then stimulated with 20 ng/ml EGF for 40 minutes.
(§2) After treatment with 1 μM Compound 1 for 72H, MDA-MB-231 and BT-20 cells were digested with 0.25% trypsin and reseeded at 2.5×10^4 cells/ml in 60 mm Ultralow Adherence plates (Corning) in DMEM/F12 supplemented with 5 ug/ml human insulin, 20 ng/ml human epidermal growth factor, 0.5 ug/ml hydrocortisone and 2% B27 (Invitrogen). Tumorspheres were then visualized (FIG. 1A) and then quantified (FIG. 1B). An important feature of cancer stem-like cells is their enhanced tumorsphere forming potential when grown in suspension. The tumorsphere forming capacity of Compound 1-treated MDA-MB-231 and BT-20 were analyzed in FIG. 1A. Consistent with previous characterization of these cells, in the absence of Compound 1, both MDA-MB-231 and BT-20 are capable of propagating as small individual tumorspheres that survive passaging.

[2] = tested on: BT-20 cells; experiment: Tumorsphere formation; assay type: cell-based; settings: BT-20, 1 μM for 72H, reseeded in suspension
Procedure: as §1, §2

[3] = tested on: cell cycle; experiment: Cell cycle analysis (FACS, propidium iodide staining); assay type: cell-based
Procedure: Cell cycles were synchronized prior to treatment through overnight serum deprivation. After treatment, cells were fixed and permeabilized using BD Cytofix/Cytoperm reagent (BD Bioscience), washed with PBS, and treated with 100 μg/ml Bovine Pancreas RNase A (US Biological). Cells were then stained with 25 μg/ml propidium iodide (Sigma) for 15 minutes and then immediately analyzed by flow cytometry using BD FACScalibur. The data was analyzed using FCS Express software.
It was observed during Compound 1 treatment that the targeting effect against stem-like cells is visibly associated with morphological changes resembling cell polyploidization, the accumulation of multiple DNA copies in a cell. This biological phenomenon sometimes occur as part of cell differentiation and is often associated with disruption of normal cell cycle. The identification of Aurora kinases (described below) as targets of Compound 1 supports the possible impact on cell division. Therefore the effect of Compound 1 on cell cycle using FACS analysis to measure propidium iodide staining was investigated.

[4] = tested on: PMC42-LA cells; experiment: Organoid differentiation on matrigel; assay type: cell-based
Procedure: as §1
In order to confirm that the reduction of CSC markers by Compound 1 correlates with loss of stem-cell properties, the effect of Compound 1 was investigated on the differentiation capability of a well-established PMC42-LA breast cell line. PMC42-LA cells treated with the appropriate concentrations of Compound 1 were also plated on Compound 1 containing matrigel and allowed to form organoids. Since the defining characteristic of stem cells is pluripotency—the capacity of a cell to differentiate into varying progenies, then Compound 1 may inhibit the differentiation process in those PMC42-LA cells. In the absence of drug treatment, PMC42-LA cells undergo differentiation into secretory organoids when cultured on matrigel.

[5] = tested on: OVCAR-3 cells; experiment: Clonogenic assay; assay type: cell-based; settings: OVCAR-3, 6 days of incubation
Procedure: as §1
(§3) Clonogenic assays were also performed using standard techniques as previously described. Briefly, cells were harvested from exponential-phase cultures, counted and plated at densities of 200 cells per well of a 12-well plate. Twenty-four hours after plating, the compounds were delivered once at the mentioned concentration. Negative control was carried out by treating the cells with DMSO. After 6 days of incubation in the presence of the compounds, the cells were stained with 0.5% crystal violet in absolute ethanol, and colonies were counted using the machine GelCount™ Tumor Colony Counter from Oxford Optronix Ltd. Each experiment was done in triplicates.

[6] = tested on: Panc-1 cells; experiment: Clonogenic assay; assay type: cell-based; settings: Panc-1, 6 days of incubation
Procedure: as §1, §3

[7] = tested on: BT20 cells; experiment: Clonogenic assay; assay type: cell-based; settings: BT20, 6 days of incubation
Procedure: as §1, §3

[8] = tested on: 4T1/M (triple-negative breast cancer); experiment: In vivo distant metastasis and primary tumor growth, orthotopic transplant; settings: 4T1/M in Balb/c mice, PO
Text: (§4) In vivo studies were approved by McGill Animal Care Committee. Cells growing in exponential phase of growth (1×10^6 cells/mouse) were transplanted into the mammary fat pad of female SCID (MDA231/M) or Balb/c (4T1) mice. Mia-PaCa cells and RENCA cells were implanted subcutaneously in SCID or Balb/c mice respectively. When primary tumors became palpable mice were randomized and blindly assigned treatment groups. Treatment was given PO for 4 cycles (3 times a week: day 1, day 3, day 5) (n=8-10 mice per condition). Control mice received the vehicle alone (1% DMSO in physiologic solution). […] Tumor size was measured using a caliper. At the study termination (60-90 days) primary tumors were excised and weighted. The lungs were fixed in 10% Bouin's fixative and lung surface metastases were counted using a stereomicroscope.

[9] = tested on: MDA-231/M (human triple-negative breast cancer); experiment: as above; settings: MDA-231/M in SCID mice, PO
Text: as §4

[10] = tested on: RENCA (renal adenocarcinoma); experiment: In vivo primary tumor growth, subcutaneous implant; parameters: species or system Balb/c mice
Text: as §4

[11] = tested on: breast cancer metastasis to the lung; experiment: In vivo invasive breast cancer models, metastasis to the lung; settings: 30 mg/kg and below given bi-weekly for 3 weeks
Text: These kinases are directly involved in pathways controlling cell differentiation programs, metastasis signaling, as well as EMT and CSC programming and their overexpression was reported to predict decreased metastasis-free survival.
as §4, with “Treatment was given PO for 4 cycles (3 times a week: day 1, day 3, day 5) (n=8-10 mice per condition).” left out

[12] = Pilot toxicity study; assay type: in vivo, mice; settings: doses even superior to 30 mg/kg, PO, 3 times a week, 4 cycles
Text: as §4

| SMILES | viable tumorspheres [1] | viable tumorspheres [2] | accumulation of polyploidic cells [3] | differentiation and expansion of colonies into larger organoid structures [4] | number of overall colonies [4] | colony forming ability [5] | colony forming ability [6] | colony forming ability [7] | Primary tumor weight ([8]; at study termination) | Inhibition of distant metastasis (% control) ([8]; lung surface metastases) | Primary tumor weight ([9]; at study termination) | Inhibition of distant metastasis (% control) ([9]; lung surface metastases) | Primary tumor weight (% inhibition vs. control) ([10]; RENCA subcutaneous in Balb/c mice, PO) | renal adenocarcinoma cell (RENCA) growth in vivo ([10]; mouse, in vivo) | inhibition of breast cancer metastasis to the lung [11] | body weight loss [12] | toxicity [12] |
| --- | --- | --- | --- | --- | --- | --- | --- | --- | --- | --- | --- | --- | --- | --- | --- | --- | --- |
| O=c1c2ccccc2[se]n1-c1nc(NC2CCCCC2)c2nc[nH]c2n1 [Compound 1] | dramatic reduction in viable tumorspheres | dramatic reduction in viable tumorspheres | induces a dose-dependent accumulation of polyploidic cells | visibly prevented the differentiation and expansion of these colonies into larger organoid structures | did not reduce the number of overall colonies | – | – | – | – | – | – | – | – | – | – | – | – |
| O=c1c2ccccc2[se]n1-c1nc(N[C@H]2CC[Se]C2)c2nc[nH]c2n1 [Compound 4] | – | – | – | – | – | Significant reduction | Significant reduction | Significant reduction | 0.5 ± 0.10 g | 75-82% | 0.2 ± 0.08 g | 45-61% | (34-55%) | able to inhibit | more than 50% | no body weight loss | no apparent toxicity |
